In general, inhibition refers to the drop in the measured response relative to a control, in per cent.

What all share (format): functional
Experiment [1] has as its system Alternaria alternata. As to the kind of experiment: Antifungal activity against Alternaria tenuis at 100 ppm after 168 hrs at 24 hrs intervals.
For experiment [2], the system named is Fusarium oxysporum f. sp. vasinfectum. As to the kind of experiment: Antifungal activity against Fusarium oxysporum vasinfectum at 1 ppm after 144 hrs at 24 hrs intervals.
Experiment [3] relates to Alternaria alternata. As to the kind of experiment: Antifungal activity against Alternaria tenuis at 1 ppm after 168 hrs at 24 hrs intervals.
Experiment [4] deals with Drechslera. As to the kind of experiment: Antifungal activity against Drechslera oryzae at 1000 ppm after 168 hrs at 24 hrs intervals.
In experiment [5] the test system is Drechslera. Briefly: Antifungal activity against Drechslera oryzae at 10 ppm after 168 hrs at 24 hrs intervals.
Experiment [6] relates to Alternaria alternata. As to the kind of experiment: Antifungal activity against Alternaria tenuis at 1000 ppm after 168 hrs at 24 hrs intervals.
Experiment [7] has as its system Drechslera. As to the kind of experiment: Antifungal activity against Drechslera oryzae at 1 ppm after 168 hrs at 24 hrs intervals.
The test system of experiment [8] is Fusarium oxysporum f. sp. vasinfectum. Briefly: Antifungal activity against Fusarium oxysporum vasinfectum at 10 ppm after 144 hrs at 24 hrs intervals.
Experiment [9] deals with Alternaria alternata. As to the kind of experiment: Antifungal activity against Alternaria tenuis at 10 ppm after 168 hrs at 24 hrs intervals.
The test system of experiment [10] is Drechslera. As to the kind of experiment: Antifungal activity against Drechslera oryzae at 100 ppm after 168 hrs at 24 hrs intervals.
The test system of experiment [11] is Fusarium oxysporum f. sp. vasinfectum. Briefly: Antifungal activity against Fusarium oxysporum vasinfectum at 100 ppm after 144 hrs at 24 hrs intervals.
The test system is the same in experiment [12]. As to the kind of experiment: Antifungal activity against Fusarium oxysporum vasinfectum at 1000 ppm after 144 hrs at 24 hrs intervals.

For `COc1c(OC(C)C)cc2oc3cc(OC(C)C)c(CC=C(C)C)c(O)c3c(=O)c2c1CC=C(C)C`, the inhibition at 100 ppm was -1% with Alternaria alternata [1], 1% in the experiment on Drechslera [10] and 4% in experiment [11]. Moreover, the inhibition at 1 ppm was 3% in experiment [2], -10% in the experiment with Alternaria alternata [3] and -1% in the experiment with Drechslera [7]. Also, the inhibition at 1000 ppm stood at 9% in the experiment on Drechslera [4], 1% in the experiment on Alternaria alternata [6] and 3% in experiment [12]. Also, the inhibition at 10 ppm with Drechslera [5] is 4%; in experiment [8], 1%; with Alternaria alternata [9], 2%.

As to `C=CCOc1cc2oc3cc(OCC=C)c(OC)c(CC=C(C)C)c3c(=O)c2c(O)c1CC=C(C)C`, the inhibition at 100 ppm was 8% in the experiment on Alternaria alternata [1], -4% with Drechslera [10] and 4% in [11]. In addition, the inhibition at 1 ppm in experiment [2] was 0%; with Alternaria alternata [3] it was -22%; in the experiment on Drechslera [7], -19%. In addition, the inhibition at 1000 ppm with Drechslera [4] is -34%; with Alternaria alternata [6], 42%; in experiment [12], 1%. Also, the inhibition at 10 ppm is -18% in the experiment with Drechslera [5], 1% in experiment [8] and -13% in the experiment with Alternaria alternata [9].

`COc1c(O)cc2oc3cc4c(c(O)c3c(=O)c2c1CC=C(C)C)CCC(C)(C)O4`: the inhibition at 100 ppm in the experiment on Alternaria alternata [1] was 28%; in the experiment on Drechslera [10] it was 58%; in experiment [11], 19%. Also, the values for the inhibition at 1 ppm (in experiment [2]; in the experiment with Alternaria alternata [3]; in the experiment with Drechslera [7]) were 4%, 11% and 29%, respectively. In addition, the results for the inhibition at 1000 ppm (in the experiment on Drechslera [4]; in the experiment on Alternaria alternata [6]; in experiment [12]) were 61%, 31% and 18%, respectively. For the same molecule, the inhibition at 10 ppm in the experiment with Drechslera [5] turned out to be 45%; in experiment [8], 8%; in the experiment on Alternaria alternata [9], 15%.

Regarding `COc1c(OC(C)=O)cc2oc3cc(OC(C)=O)c(CC=C(C)C)c(O)c3c(=O)c2c1CC=C(C)C`, the inhibition at 100 ppm was 6% with Alternaria alternata [1], 11% with Drechslera [10] and 4% in experiment [11]. Also, the inhibition at 1 ppm was 6% in experiment [2], 8% with Alternaria alternata [3] and 11% in the experiment on Drechslera [7]. Moreover, the values for the inhibition at 1000 ppm (in the experiment with Drechslera [4]; in the experiment with Alternaria alternata [6]; in experiment [12]) were 14%, -6% and 3%, respectively. The inhibition at 10 ppm with Drechslera [5] turned out to be 51%; in experiment [8] it was 5%; in the experiment on Alternaria alternata [9] it was 6%.

Regarding `C=C(C)COc1cc2oc3cc(OCC(=C)C)c(OC)c(CC=C(C)C)c3c(=O)c2c(O)c1CC=C(C)C`, the inhibition at 100 ppm is 4% in the experiment on Alternaria alternata [1], -1% in the experiment on Drechslera [10] and 3% in experiment [11]. The results for the inhibition at 1 ppm (in experiment [2]; in the experiment on Alternaria alternata [3]; in the experiment with Drechslera [7]) were 1%, -8% and -1%, respectively. Besides, the inhibition at 1000 ppm in the experiment on Drechslera [4] was 17%; in the experiment on Alternaria alternata [6], -1%; in experiment [12], 9%. In addition, the inhibition at 10 ppm in the experiment on Drechslera [5] is -1%; in experiment [8], 2%; in the experiment with Alternaria alternata [9], -2%.

As for `CC1(C)CCc2c(cc3oc4cc(O)c5c(c4c(=O)c3c2O)CCC(C)(C)O5)O1` [BR-XANTHONE A], the inhibition at 100 ppm worked out at 15% in the experiment on Alternaria alternata [1], 31% in the experiment on Drechslera [10] and 0% in experiment [11]. Besides, the inhibition at 1 ppm in [2] came out at 3%; in the experiment on Alternaria alternata [3], 14%; in the experiment on Drechslera [7], 27%. The results for the inhibition at 1000 ppm (with Drechslera [4]; in the experiment on Alternaria alternata [6]; in experiment [12]) were 36%, 14% and 3%, respectively. Moreover, the inhibition at 10 ppm amounted to 28% in the experiment with Drechslera [5], 0% in [8] and 18% with Alternaria alternata [9].

With `COc1c(O)cc2oc3cc(O)c(CC=C(C)C)c(O)c3c(=O)c2c1CCC(C)(C)O` [GARCINONE D], the inhibition at 100 ppm is -11% in the experiment on Alternaria alternata [1], 43% with Drechslera [10] and 12% in [11]. Moreover, the inhibition at 1 ppm in experiment [2] was -1%; in the experiment with Alternaria alternata [3] it was -7%; in the experiment with Drechslera [7], 27%. Also, the inhibition at 1000 ppm in the experiment on Drechslera [4] came out at 64%; in the experiment on Alternaria alternata [6], 26%; in experiment [12], 41%. For the same molecule, the inhibition at 10 ppm was determined as 30% in the experiment on Drechslera [5], 10% in experiment [8] and 2% with Alternaria alternata [9].

For `CC(C)=CCc1c(O)c(CC=C(C)C)c2oc3c(O)ccc(O)c3c(=O)c2c1O` [GARTANIN], the inhibition at 100 ppm was found to be 22% with Alternaria alternata [1], 75% with Drechslera [10] and 9% in experiment [11]. For the same molecule, the inhibition at 1 ppm in [2] was found to be 3%; in the experiment on Alternaria alternata [3], 4%; in the experiment on Drechslera [7], 18%. For the same molecule, the inhibition at 1000 ppm was 71% in the experiment with Drechslera [4], 29% in the experiment with Alternaria alternata [6] and 12% in [12]. For the same molecule, the inhibition at 10 ppm in the experiment on Drechslera [5] worked out at 54%; in experiment [8], 4%; with Alternaria alternata [9], 20%.

As to `COc1c(O)cc2oc3cc(O)c(CC=C(C)C)c(O)c3c(=O)c2c1CC=C(C)C` [MANGOSTIN], the inhibition at 100 ppm in the experiment on Alternaria alternata [1] amounted to 39%; with Drechslera [10], 54%; in experiment [11], 29%. Further, the inhibition at 1 ppm in experiment [2] was found to be 11%; in the experiment with Alternaria alternata [3] it was 17%; in the experiment on Drechslera [7], 55%. Also, the inhibition at 1000 ppm was 53% in the experiment with Drechslera [4], 41% in the experiment on Alternaria alternata [6] and 24% in experiment [12]. In addition, the figures for the inhibition at 10 ppm (in the experiment with Drechslera [5]; in [8]; with Alternaria alternata [9]) were 51%, 22% and 38%, respectively.

Take `O=c1c2ccccc2oc2ccccc12` [XANTHONE]: the inhibition at 100 ppm is -6% with Alternaria alternata [1], 34% with Drechslera [10] and 1% in experiment [11]. Also, the inhibition at 1 ppm in experiment [2] was -2%; with Alternaria alternata [3], -43%; in the experiment on Drechslera [7] it was 19%. The inhibition at 1000 ppm in the experiment on Drechslera [4] was 3%; in the experiment with Alternaria alternata [6], -14%; in experiment [12], 6%. Moreover, the inhibition at 10 ppm stood at 29% in the experiment with Drechslera [5], 8% in experiment [8] and 5% with Alternaria alternata [9].

The values above are taken from ChEMBL document CHEMBL1146447, “Evaluation of the antifungal activity of natural xanthones from Garcinia mangostana and their synthetic derivatives” (1997).
